Experimental data: publication PMC7922564, “Molecular Insights into an Antibiotic Enhancer Action of New Morpholine-Containing 5-Arylideneimidazolones in the Fight against MDR Bacteria” (International Journal of Molecular Sciences, 2021)
Values after ≈ are worked out from the molar mass of the structure shown. Values joined by “and” are separate entries in the source; they are usually repeats but may differ in a detail not shown here. Equal values may be shown once. Read-outs that look alike come from different tables or passages of the source.

Experiments:
S. aureus Mu50 = assay: MIC of compounds, S. aureus Mu50; type: cell-based; details: Staphylococcus aureus; Mu50 (VISA)
Procedure: Compounds 14–16 were tested further for their adjuvant-like effect with a set of ten additional S. aureus isolates. Firstly, MIC values of the molecules were evaluated in two clinical MSSA isolates (MM-O058, MM-N072), seven MRSA (USA300 LAC, 5328, LG-N017, MM-O021, R45-CC45, R46-CC22, COL) and one VISA strain (Mu50). Detailed results are presented in the Supplementary section (Table S3). […]
(§1) Initially, MICs of a series of imidazolone derivatives were assessed against susceptible (reference) and MDR strains of staphylococci. Next, MIC values of the aforementioned antibiotics were determined in the absence and presence of imidazolone derivatives to assess the chemosensitizing effect of these compounds. […] Antibacterial activity of compounds and antibiotics ampicillin, vancomycin, ciprofloxacin, and erythromycin was recorded as the lowest concentration of molecules able to inhibit bacterial growth after 18 h incubation at 37 °C. […] The results are presented as activity gain (A) parameter which was calculated as ratio of MIC of a certain antibiotic (MICAnt) to its MICAnt+Comp, observed in combination with a tested compound (7, 12–16, 19, or 20; Equation (1)). […]

S. aureus USA300 LAC = assay: MIC of compounds, S. aureus USA300 LAC; type: cell-based; details: Staphylococcus aureus
Procedure: (§2) Compounds 14–16 were tested further for their adjuvant-like effect with a set of ten additional S. aureus isolates. Firstly, MIC values of the molecules were evaluated in two clinical MSSA isolates (MM-O058, MM-N072), seven MRSA (USA300 LAC, 5328, LG-N017, MM-O021, R45-CC45, R46-CC22, COL) and one VISA strain (Mu50). Detailed results are presented in the Supplementary section (Table S3).
(§3) Determination of MIC values, i.e., intrinsic antibacterial activity, of products and antibiotics (oxacillin, ampicillin, vancomycin, ciprofloxacin, and erythromycin) in the presence and absence of compounds tested was conducted by the use of a standard 2-fold microdilution method in cation-adjusted Mueller Hinton broth following the Clinical and Laboratory Standards Institute (CLSI) guidelines. The MIC values were detected using an Infinite M200 pro Tecan microplate reader (Tecan® France, SA-Lyon, France). MIC determinations were conducted in 96-well microtiter plates and repeated 3–4 times.
as §1, with “compounds. […] 5-arylideneimidazolones and 5-arylidenethiazolones, which precipitated after addition to bacterial suspension in MH II medium, were tested at the highest concentrations at which precipitation was not observed.” for “compounds.”

S. aureus MM-O058 = assay: MIC of compounds, S. aureus MM-O058; type: cell-based; details: Staphylococcus aureus; MM-O058 (MSSA)
Procedure: as §2, §3
as §1, with “compounds. […] 5-arylideneimidazolones and 5-arylidenethiazolones, which precipitated after addition to bacterial suspension in MH II medium, were tested at the highest concentrations at which precipitation was not observed.” for “compounds.”

CYP3A4 = CYP3A4 (Homo sapiens, UniProt P08684); assay: Luminescent CYP3A4 P450-Glo assay
Sequence of CYP3A4 (P08684 whole entry): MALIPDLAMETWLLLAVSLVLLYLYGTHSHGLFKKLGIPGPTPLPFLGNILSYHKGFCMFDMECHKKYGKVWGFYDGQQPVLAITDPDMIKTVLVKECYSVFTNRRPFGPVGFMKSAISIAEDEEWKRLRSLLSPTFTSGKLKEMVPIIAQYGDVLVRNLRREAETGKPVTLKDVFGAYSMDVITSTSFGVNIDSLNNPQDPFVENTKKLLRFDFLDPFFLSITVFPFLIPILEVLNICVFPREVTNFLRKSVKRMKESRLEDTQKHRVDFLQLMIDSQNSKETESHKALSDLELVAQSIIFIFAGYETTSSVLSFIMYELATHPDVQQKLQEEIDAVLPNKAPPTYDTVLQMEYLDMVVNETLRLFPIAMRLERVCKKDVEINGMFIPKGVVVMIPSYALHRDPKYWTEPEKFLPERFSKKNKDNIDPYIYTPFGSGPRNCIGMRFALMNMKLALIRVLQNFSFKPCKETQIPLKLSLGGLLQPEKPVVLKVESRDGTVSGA
Procedure: The luminescent CYP3A4 P450-Glo™ assay was carried out according to a protocol described previously (Promega, Madison, WI, USA). […] Performance of enzymatic reaction was carried out in white polystyrene, flat-bottom Nunc™ MicroWell™ 96-Well Microplate (Thermo Scientific Waltham, MA, USA) and the result was measured with a microplate reader EnSpire in luminescence mode (PerkinElmer, Waltham, MA USA). IC50 values were calculated using GraphPad Prism™ software (version 5.01, San Diego, CA, USA). Compounds 15 and 19 were tested at concentrations from 0.01 μM to 25 μM.

[1] = Stability in acidic and basic conditions (TLC); type: physicochemical; details: for Number of TLC spots: 1 = stable
Procedure: Compounds 9–12, 15, and 19 were also tested for their stability in acidic and basic conditions. This assay was carried out for 48 h and samples were taken at six-time intervals (10 min, 1 h, 2 h, 3 h, 24 h, 48 h). Stability of the compounds was determined using the TLC method. […] In basic conditions, only compounds 10 and 15 were stable for 24 h. […] Results with details, including time of degradation of products obtained, are presented in the Supplementary (Tables S19 and S20). […]
VI. Stability in different pH conditions
Stability of chosen compounds (9-12, 15, and 19) were determined using the TLC method. Assays were performed in acidic and basic conditions and were carried out for 48 h. Samples were taken at six-time intervals (10 min., 1 h, 2 h, 3 h, 24 h, 48 h). […]
of spots observed on TLC, where 1 indicate that compound is stable (only TLC spot for proper compound was observed). Higher values point out how many products of degradation was observed, which can be calculating by subtracting one from number of spots.
Table S19. Results of chosen compounds (9-12, 15, 19) stability in acidic conditions.
Compound Number of TLC spots in defined time
Table S20. Results of chosen compounds (9-12, 15, 19) stability in basic conditions.

[2] = Water solubility (UV spectroscopy); type: physicochemical
Description: Six representatives of 5-arylideneimidazolones (9–12, 15, 19) were chosen for the determination of water solubility. UV spectroscopy was used for the estimation of concentrations of compounds according to the method described earlier. Acquired UV absorbance, calculated means, and standard deviations for tested compounds are presented in Supplementary Table S18. Solubility results, presented in Table 6, point out that compounds from the same group (A or B, Table 1 and Table 2) with the two-ring aromatic moiety are more soluble than compounds with the fluorene motive (Group A: 9, 10, 11 vs. 12; Group B: 15 vs. 19). […] The most soluble of tested compounds was compound 15, which could be dissolved in water at a concentration of up to 205.502 mM/L.
Water solubility was obtained using UV spectroscopy method. Absorbance of tested solutions of compounds 9-12, 15, and 19, respectively in suitable dilution, in three repetitions as well as calculated arithmetic means, solubility and standard deviations are presented in Table S18. the solubility results […]
Table S18. Results of absorbance used for estimation of water solubility of tested compounds (9-12, 15, 19).
Abbreviations: A1, A2,and A3, UV absorbance in first, second, and third repetition; Amean, arithmetic mean of absorbance from three repetitions; s, standard deviation for absorbance; S, water solubility; SD – standard deviation for solubility. […]

[3] = system: AcrAB-TolC efflux pump in K. aerogenes strain Ea-289; set-up: method as in PMID 30691112; details: compound 100 µM; previously described; cited from earlier work
S. aureus ATCC 25923 = system: S. aureus ATCC 25923; set-up: method as in earlier work; details: unstarred value; published previously; cited from earlier work
K. aerogenes Ea-289 = system: K. aerogenes Ea-289; set-up: method as in earlier work; details: doxycycline, chloramphenicol, norfloxacin, already published, cited from earlier work
[4] = USA300 LAC (MRSA), read-out: MIC value of compounds

| Structure (SMILES) | MIC (S. aureus Mu50) [µM] | MIC (S. aureus USA300 LAC; [4]) [µM] | MIC (S. aureus MM-O058) [µM] | IC50 (CYP3A4) [µM] | Number of TLC spots ([1]; acidic conditions, 10 min) | Number of TLC spots ([1]; acidic conditions, 1 h) | Number of TLC spots ([1]; acidic conditions, 2 h) | Number of TLC spots ([1]; acidic conditions, 3 h) | Number of TLC spots ([1]; acidic conditions, 24 h) | Number of TLC spots ([1]; acidic conditions, 48 h) | Number of TLC spots ([1]; basic conditions, 10 min) | Number of TLC spots ([1]; basic conditions, 1 h) | Number of TLC spots ([1]; basic conditions, 2 h) | Number of TLC spots ([1]; basic conditions, 3 h) | Number of TLC spots ([1]; basic conditions, 24 h) | Number of TLC spots ([1]; basic conditions, 48 h) | solubility [2] | also measured |
| --- | --- | --- | --- | --- | --- | --- | --- | --- | --- | --- | --- | --- | --- | --- | --- | --- | --- | --- |
| NC1=N/C(=C\c2ccc(-c3ccccc3)cc2)C(=O)N1CCN1CCOCC1 [Compound 14] | ≥ 500 | ≥ 500 | ≥ 1000 | – | – | – | – | – | – | – | – | – | – | – | – | – | – | – |
| NC1=N/C(=C\c2ccc(-c3ccccc3)cc2)C(=O)N1CCCN1CCOCC1 [Compound 15] | 250 | – | 250 | > 25 | 2 | 2 | 2 | 2 | 2 | 2 | 1 | 1 | 1 | 1 | 1 | 2 | 87600 µg/mL and 206000 µM | inhibition at 25 µM (CYP3A4; human): < 50%; time stable ([1]; basic conditions): 24 h; MIC (S. aureus USA300 LAC; MRSA / USA300, read-out: MIC value of compounds): 125 µM |
| NC1=N/C(=C\c2cccc(Oc3ccccc3)c2)C(=O)N1CCCN1CCOCC1 [Compound 16] | – | 250 | 250 | – | – | – | – | – | – | – | – | – | – | – | – | – | – | Inhibition efficiency (IE) towards extrusion of 1,2'-dNA [3]: 61%; MIC value (S. aureus ATCC 25923): 0.125 mM (≈ 50.8 µg/mL); MIC reduction (K. aerogenes Ea-289; erythromycin + compound): No effect; A (activity gain) (K. aerogenes Ea-289; erythromycin): 1 |
| NC1=N/C(=C\c2ccc3c(c2)Cc2ccccc2-3)C(=O)N1CCCN1CCOCC1 [Compound 19] | – | – | – | 24.9 | 1 | 1 | 1 | 2 | 2 | 3 | 4 | 4 | 4 | 4 | 4 | 4 | 8530 µg/mL and 19500 µM | – |
